Test system: NKT cell hybridomas
Assay: IL-2 production by NKT cell hybridomas cultured with BMDCs (ELISA)
Assay type: cell-based, mouse
Protocol: FIGS. 4A-4C illustrate that α-GalCerBf binds CD1d and activates murine NKT cells in vitro. FIG. 4A: NKT cell hybridomas (see Example 4) were stained with anti-CD3 antibodies, and empty mCD1d tetramers or CD1d tetramers were loaded with α-GalCerBf or KRN7000. Flow cytometry plots representative of three independent experiments are shown. FIG. 4B: Hybridomas were cultured with BMDCs (bone marrow-derived dendritic cells) pre-pulsed with LPS or LPS+α-GalCerBf in the presence of control Ig or anti-CD1d blocking antibodies. IL-2 secretion was measured in supernatants 16 hr later. Data are representative of three independent experiments. FIG. 4C: Liver mononuclear cells were cultured with splenocytes plus increasing amounts of α-GalCerBf in the presence or absence of anti-CD1d blocking antibodies. IFN-γ secretion was measured in supernatants on day 5. Data are representative of three independent experiments.
BMDCs and NKT hybridomas were cultured at a 3:1 hybridoma:BMDC ratio and the indicated doses of KRN7000 or α-GalCerBf in the presence of 1 μg/ml LPS. Supernatants were harvested after 24 hrs, and IL-2 production was measured by ELISA. […]
NKT hybridomas were stimulated in dose titration experiments. […] Supernatants were harvested after 24 hr, and IL-2 production was measured by ELISA. […] Supernatants were harvested after 16-18 hr and IL-2 production was measured by ELISA.

CCCCCCCCCCCCCCCCCCCCCCCCCC(=O)N[C@@H](CO[C@H]1O[C@H](CO)[C@H](O)[C@H](O)[C@H]1O)[C@H](O)[C@H](O)CCCCCCCCCCCCCC [KRN7000]
Sensitivity of hybridoma to KRN7000 relative to α-GalCerBf (IL-2) (hybridoma 1.2): 30 fold
Sensitivity of hybridoma to KRN7000 relative to α-GalCerBf (IL-2) (hybridoma 1.4): 80 fold

Reference: US10227290B2, “Glycosphingolipids for use in modulating immune responses” (The Regents of the University of California, priority 2012, dated 2019)
